How the values were obtained:
[1] = tested on: mHTT protein in GM04724 (CAG 70/20) Huntington's disease patient lymphoblast cells; assay: mHTT protein assay, 2B7-MW1 assay via Mesoscale Discovery (MSD); format: cell-based, human
How it was run: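 Patient lymphoblasts treated 48 h with compound from 10 μM to 0.6 nM. mHTT quantified by MSD 2B7-MW1 immunoassay, whose signal depends on polyQ expansion and HTT size. Viability measured on a replicate plate by CellTiter Glo.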

[2] = tested on: SMN protein in spinal muscular atrophy (SMA) patient fibroblasts (GM03813, Coriell); assay: SMN protein assay, Mesoscale Discovery (MSD); format: cell-based, human; details: for EC50: read-out: SMN2 protein EC50
How it was run: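 SMA patient fibroblasts (GM03813) seeded at 7000 cells/well and exposed to compound at 2.5 μM to 0.6 nM for 48 hours. Lysates assayed for SMN by MSD immunoassay, with absolute SMN amount calculated from a per-plate SMN standard curve (1 μg/ml to 19.5 pg/ml).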

[3] = tested on: MDR1-MDCK cell monolayers; details: dog, MDCK-MDR1, 120 min, 5 μM, pH 7.4
MDR1 (P-gp) = assay: in vitro; details: dog, MDCK-MDR1, pH 7.4
MDR1 = assay: in vitro; details: dog, MDCK-MDR1, pH 7.4
[4] = GM04724 (CAG 70/20) Huntington's disease patient lymphoblasts
[5] = SMA patient fibroblasts (GM03813), 48 hours
[6] = GM04724 Huntington's disease patient lymphoblasts
[7] = SMA patient fibroblasts GM03813, 48 hours, MSD

SMILES | mHTT protein EC50 [1, 4] | SMN2 protein EC50 [2, 5] | MDCK-MDR1: % Recov A-B [3] | MDCK-MDR1: % Recov B-A [3] | Papp A→B at 120 min, 5 μM (MDR1 (P-gp)) | Papp B→A at 120 min, 5 μM (MDR1 (P-gp)) | efflux ratio at 120 min, 5 μM (MDR1) | EC50 [2, 5] | EC50 [1, 6] | SMN2 protein EC50 [2, 7] | mHTT protein EC50 [1, 6]
CN1[C@H]2CC[C@@H]1[C@@H](F)[C@@H](N(c1ccc(-c3cc4ncn(CC(F)(F)F)c(=O)c4cc3O)nn1)C1CC1)C2 (single isomer, unassigned) [Compound 111B] | E (501 ≤ E ≤ 10.000) | E (501 ≤ E ≤ 10.000) | 74% | 56% | 0.66 ×10⁻⁶ cm/s | 35.9 ×10⁻⁶ cm/s | 54 |  |  |  | 
CN(c1ccc(-c2ccccc2O)nn1)[C@H]1C[C@@H]2CC[C@@H](N2)[C@H]1F (single isomer, unassigned) [Compound 119B] | E (501 ≤ E ≤ 10.000) | E (501 ≤ E ≤ 10.000) | 93% | 95% | 6.13 ×10⁻⁶ cm/s | 58.2 ×10⁻⁶ cm/s | 9 |  |  |  | 
CN(c1ccc(-c2ccc(C(F)F)cc2O)nn1)[C@@H]1C[C@H]2CC[C@H](N2)[C@@H]1F (single isomer, unassigned) [Compound 120A] | E (501 ≤ E ≤ 10.000) | E (501 ≤ E ≤ 10.000) | 76% | 74% | 4.59 ×10⁻⁶ cm/s | 34.8 ×10⁻⁶ cm/s | 8 |  |  |  | 
CN(c1ccc(-c2ccc(C(F)F)cc2O)nn1)[C@H]1C[C@@H]2CC[C@@H](N2)[C@H]1F (single isomer, unassigned) [Compound 120B] | E (501 ≤ E ≤ 10.000) | E (501 ≤ E ≤ 10.000) | 60% | 76% | 5.84 ×10⁻⁶ cm/s | 27.3 ×10⁻⁶ cm/s | 5 |  |  |  | 
CN(c1ccc(-c2ccc(Oc3nccn3C)cc2O)nn1)[C@@H]1C[C@H]2CC[C@H](N2)[C@@H]1F (single isomer, unassigned) [Compound 123A] | E (501 ≤ E ≤ 10.000) | E (501 ≤ E ≤ 10.000) | 97% | 102% | 0.76 ×10⁻⁶ cm/s | 59.7 ×10⁻⁶ cm/s | 79 |  |  |  | 
CN(c1ccc(-c2ccc(Oc3nccn3C)cc2O)nn1)[C@H]1C[C@@H]2CC[C@@H](N2)[C@H]1F (single isomer, unassigned) [Compound 123B] | E (501 ≤ E ≤ 10.000) |  | 92% | 102% | 0.66 ×10⁻⁶ cm/s | 58.7 ×10⁻⁶ cm/s | 89 | 101 to 500 nM |  |  | 
CN(c1ccc(-c2ccc(-n3cnc(C(=O)NC(C)(C)C)c3)cc2O)nn1)[C@@H]1C[C@H]2CC[C@H](N2)[C@@H]1F (single isomer, unassigned) [Compound 124A] | E (501 ≤ E ≤ 10.000) |  | 78% | 78% | 0.34 ×10⁻⁶ cm/s | 45.7 ×10⁻⁶ cm/s | 133 | 101 to 500 nM |  |  | 
Cc1nc2cc(-c3ccc(N(C)[C@@H]4C[C@H]5CC[C@@H]([C@@H]4F)N5C)nn3)c(O)cc2c(=O)n1CC(F)(F)F (single isomer, unassigned) [Compound 130A] | E (501 ≤ E ≤ 10.000) | E (501 ≤ E ≤ 10.000) | 105% | 116% | 0.67 ×10⁻⁶ cm/s | 75.4 ×10⁻⁶ cm/s | 113 |  |  |  | 
Cc1nc2cc(-c3ccc(N(C)[C@H]4C[C@@H]5CC[C@H]([C@H]4F)N5C)nn3)c(O)cc2c(=O)n1CC(F)(F)F (single isomer, unassigned) [Compound 130B] | E (501 ≤ E ≤ 10.000) | E (501 ≤ E ≤ 10.000) | 107% | 110% | 0.77 ×10⁻⁶ cm/s | 72.2 ×10⁻⁶ cm/s | 94 |  |  |  | 
Cc1nc2cc(O)c(-c3ccc(N(C)[C@@H]4C[C@H]5CC[C@H](N5)C4F)nn3)cc2o1 (stereo in doubt) [Compound 40A, 6-(6-(((1S,2R,3R,5R)-2-fluoro-8-azabicyclo[3.2.1]octan-3-yl)(methyl)amino)pyridazin-3-yl)-2-methylbenzo[d]oxazol-5-ol] |  |  | 62% | 92% | 3.68 ×10⁻⁶ cm/s | 57.9 ×10⁻⁶ cm/s | 16 |  | 101 to 500 nM | E (501 ≤ E ≤ 10.000) | 
CN(c1ccc(-c2ccc(-n3ccnc3)cc2O)nn1)[C@H]1C[C@@H]2CC(F)(F)[C@H](C1)N2 [Compound 13B, 2-(6-(((1R,3S,5S)-6,6-difluoro-8-azabicyclo[3.2.1]octan-3-yl)(methyl)amino)pyridazin-3-yl)-5-(1H-imidazol-1-yl)phenol] |  |  | 90% | 97% | 9.96 ×10⁻⁶ cm/s | 55.7 ×10⁻⁶ cm/s | 6 |  | 101 to 500 nM | E (501 ≤ E ≤ 10.000) | 
CCc1cn(-c2ccc(-c3ccc(N(C)[C@H]4C[C@@H]5CC(F)(F)[C@H](C4)N5)nn3)c(O)c2)cn1 [Compound 18B, 2-(6-(((1R,3S,5S)-6,6-difluoro-8-azabicyclo[3.2.1]octan-3-yl)(methyl)amino)pyridazin-3-yl)-5-(4-ethyl-1H-imidazol-1-yl)phenol] |  |  | 55% | 69% | 8.37 ×10⁻⁶ cm/s | 35.6 ×10⁻⁶ cm/s | 4 |  | 101 to 500 nM | E (501 ≤ E ≤ 10.000) | 
CC(=O)N(C)c1ccc(-c2ccc(N(C)[C@@H]3C[C@H]4CC[C@H](N4)[C@@H]3F)nn2)c(O)c1 [Compound 35A, N-(4-(6-(((1S,2S,3R,5R)-2-fluoro-8-azabicyclo[3.2.1]octan-3-yl)(methyl)amino)pyridazin-3-yl)-3-hydroxyphenyl)-N-methylacetamide] |  |  | 102% | 103% | 0.21 ×10⁻⁶ cm/s | 41 ×10⁻⁶ cm/s | 197 |  |  | E (501 ≤ E ≤ 10.000) | E (501 ≤ E ≤ 10.000)
CN(c1ccc(-c2cc3cccnc3cc2O)nn1)[C@H]1C[C@@H]2CC(F)(F)[C@H](C1)N2 [Compound 45B, 6-(6-(((1R,3S,5S)-6,6-difluoro-8-azabicyclo[3.2.1]octan-3-yl)(methyl)amino)pyridazin-3-yl)quinolin-7-ol] |  |  | 95% | 111% | 10.2 ×10⁻⁶ cm/s | 45.3 ×10⁻⁶ cm/s | 4 |  |  | E (501 ≤ E ≤ 10.000) | E (501 ≤ E ≤ 10.000)
O=C(c1cc2cc(O)c(-c3ccc(N(C4CC4)[C@@H]4C[C@H]5CC[C@H](N5)[C@@H]4F)nn3)cc2o1)N1CCC1 [Compound 57A, azetidin-1-yl(6-(6-(cyclopropyl((1S,2S,3R,5R)-2-fluoro-8-azabicyclo[3.2.1]octan-3-yl)amino)pyridazin-3-yl)-5-hydroxybenzofuran-2-yl)methanone] |  |  | 89% | 104% | 0.78 ×10⁻⁶ cm/s | 63.2 ×10⁻⁶ cm/s | 80 |  |  | E (501 ≤ E ≤ 10.000) | E (501 ≤ E ≤ 10.000)
CN(c1ccc(-c2cc3ncn(CC(F)(F)F)c(=O)c3cc2O)nn1)[C@H]1C[C@@H]2CC(F)(F)[C@H](C1)N2 [Compound 59B, 7-(6-(((1R,3S,5S)-6,6-difluoro-8-azabicyclo[3.2.1]octan-3-yl)(methyl)amino)pyridazin-3-yl)-6-hydroxy-3-(2,2,2-trifluoroethyl)quinazolin-4(3H)-one] |  |  | 107% | 101% | 2.97 ×10⁻⁶ cm/s | 84.2 ×10⁻⁶ cm/s | 28 |  |  | E (501 ≤ E ≤ 10.000) | E (501 ≤ E ≤ 10.000)
CN(c1ccc(-c2cc(C#N)c(F)cc2O)nn1)[C@@H]1C[C@H]2CC[C@H](N2)[C@@H]1F [Compound 72A, 2-fluoro-5-(6-(((1S,2S,3R,5R)-2-fluoro-8-azabicyclo[3.2.1]octan-3-yl)(methyl)amino)pyridazin-3-yl)-4-hydroxybenzonitrile] |  |  | 88% | 77% | 11.6 ×10⁻⁶ cm/s | 39.9 ×10⁻⁶ cm/s | 3 |  |  | E (501 ≤ E ≤ 10.000) | E (501 ≤ E ≤ 10.000)
CN(C)C(=O)c1cc2cc(O)c(-c3ccc(N(C4CC4)[C@@H]4C[C@H]5CC[C@H](N5)[C@@H]4F)nn3)cc2o1 [Compound 86A, 6-(6-(cyclopropyl((1S,2S,3R,5R)-2-fluoro-8-azabicyclo[3.2.1]octan-3-yl)amino)pyridazin-3-yl)-5-hydroxy-N,N-dimethylbenzofuran-2-carboxamide] |  |  | 93% | 90% | 1.05 ×10⁻⁶ cm/s | 62.5 ×10⁻⁶ cm/s | 60 |  |  | E (501 ≤ E ≤ 10.000) | E (501 ≤ E ≤ 10.000)

From patent US12509460B2 (Skyhawk Therapeutics, Inc., priority 2019, dated 2025)
